# Measured values from ChEMBL document CHEMBL3885861, “Open TG-GATES”.
# Species: Rattus norvegicus
# Experiment: Open TG-GATES - Regimen: Daily Repeat
# Assay type: toxicity, organism-based, Sprague-Dawley
# Parameters: regimen Daily Repeat, gender Male, age 6 weeks
# Conditions: in vivo, po, 0 mg/kg, route gavage, dose level Control; for APTT / Bas / Eos / Fbg / Hb / Ht / Lym / MCH / MCHC / MCV / Mono / Neu / PT / Plat / RBC / Ret / WBC: tissue Blood; for KIDNEY_L / KIDNEY_R / KIDNEY_TOTAL: tissue Kidney; for LIVER: tissue Liver; for A/G / ALP / ALT / AST / BUN / CRE / Ca / Cl / DBIL / GLC / IP / K / LDH / Na / PL / RALB / TBIL / TC / TG / TP / gamma-GTP: tissue Plasma
compound,measurement,setting,value
CNC(=C[N+](=O)[O-])NCCSCc1ccc(CN(C)C)o1 [RANITIDINE],TERMINAL_BW,"72 h, time 3 day",234.4 g
same,APTT,"72 h, time 3 day",18.8 s
same,Bas,"72 h, time 3 day",0%
same,Eos,"72 h, time 3 day",1%
same,Fbg,"72 h, time 3 day",243.4 mg/dL
same,Hb,"72 h, time 3 day",13.9 g/dL
same,Ht,"72 h, time 3 day",40.4%
same,Lym,"72 h, time 3 day",79.8%
same,MCH,"72 h, time 3 day",22.1 pg
same,MCHC,"72 h, time 3 day",34.4%
same,MCV,"72 h, time 3 day",64.2 fL
same,Mono,"72 h, time 3 day",2.6%
same,Neu,"72 h, time 3 day",15.2%
same,PT,"72 h, time 3 day",11.9 s
same,Plat,"72 h, time 3 day",112 x10_4/uL
same,RBC,"72 h, time 3 day",629.4 x10_4/ul
same,Ret,"72 h, time 3 day",5.1%
same,WBC,"72 h, time 3 day",95.3 x10_2/uL
same,KIDNEY_L,"72 h, time 3 day",1.1 g
same,KIDNEY_R,"72 h, time 3 day",1.1 g
same,KIDNEY_TOTAL,"72 h, time 3 day",2.2 g
same,LIVER,"72 h, time 3 day",11.5 g
same,A/G,"72 h, time 3 day",1.6
same,ALP,"72 h, time 3 day",924 IU/L
same,ALT,"72 h, time 3 day",35.2 IU/L
same,AST,"72 h, time 3 day",66.6 IU/L
same,BUN,"72 h, time 3 day",16.6 mg/dL
same,CRE,"72 h, time 3 day",0.4 mg/dL
same,Ca,"72 h, time 3 day",10.9 mg/dL
same,Cl,"72 h, time 3 day",103.8 meq/L
same,DBIL,"72 h, time 3 day",0.1 mg/dL
same,GLC,"72 h, time 3 day",198.8 mg/dL
same,IP,"72 h, time 3 day",7.4 mg/dL
same,K,"72 h, time 3 day",4.2 meq/L
same,LDH,"72 h, time 3 day",178.4 IU/L
same,Na,"72 h, time 3 day",140.4 meq/L
same,PL,"72 h, time 3 day",169.6 mg/dL
same,RALB,"72 h, time 3 day",3.5 g/dL
same,TBIL,"72 h, time 3 day",0.2 mg/dL
same,TC,"72 h, time 3 day",92.4 mg/dL
same,TG,"72 h, time 3 day",92.4 mg/dL
same,TP,"72 h, time 3 day",5.7 g/dL
same,gamma-GTP,"72 h, time 3 day",1.2 IU/L
same,TERMINAL_BW,"[…], time 7 day",265.4 g
same,TERMINAL_BW,"[…], time 14 day",305.8 g
same,TERMINAL_BW,"[…], time 28 day",385.4 g
same,APTT,"[…], time 7 day",19.3 s
same,Bas,"[…], time 7 day",0%
same,Eos,"[…], time 7 day",1.2%
same,Fbg,"[…], time 7 day",225.8 mg/dL
same,Hb,"[…], time 7 day",13.9 g/dL
same,Ht,"[…], time 7 day",39.4%
same,Lym,"[…], time 7 day",76.6%
same,MCH,"[…], time 7 day",21.8 pg
same,MCHC,"[…], time 7 day",35.3%
same,MCV,"[…], time 7 day",61.7 fL
same,Mono,"[…], time 7 day",2.4%
same,Neu,"[…], time 7 day",18.4%
same,PT,"[…], time 7 day",12.1 s
same,Plat,"[…], time 7 day",120.4 x10_4/uL
same,RBC,"[…], time 7 day",639 x10_4/ul
same,Ret,"[…], time 7 day",4.9%
same,WBC,"[…], time 7 day",90.8 x10_2/uL
same,APTT,"[…], time 14 day",20.1 s
same,Bas,"[…], time 14 day",0%
same,Eos,"[…], time 14 day",1%
same,Fbg,"[…], time 14 day",238.8 mg/dL
same,Hb,"[…], time 14 day",14.8 g/dL
same,Ht,"[…], time 14 day",42.2%
same,Lym,"[…], time 14 day",75.6%
same,MCH,"[…], time 14 day",20.6 pg
same,MCHC,"[…], time 14 day",35.2%
same,MCV,"[…], time 14 day",58.6 fL
same,Mono,"[…], time 14 day",2.4%
same,Neu,"[…], time 14 day",19.2%
same,PT,"[…], time 14 day",12 s
same,Plat,"[…], time 14 day",115.1 x10_4/uL
same,RBC,"[…], time 14 day",720.6 x10_4/ul
same,Ret,"[…], time 14 day",3.7%
same,WBC,"[…], time 14 day",101.2 x10_2/uL
same,APTT,"[…], time 28 day",20.9 s
same,Bas,"[…], time 28 day",0.4%
same,Eos,"[…], time 28 day",1.4%
same,Fbg,"[…], time 28 day",223.8 mg/dL
same,Hb,"[…], time 28 day",15.6 g/dL
same,Ht,"[…], time 28 day",43.7%
same,Lym,"[…], time 28 day",77.8%
same,MCH,"[…], time 28 day",20 pg
same,MCHC,"[…], time 28 day",35.7%
same,MCV,"[…], time 28 day",56.2 fL
same,Mono,"[…], time 28 day",2.6%
same,Neu,"[…], time 28 day",16.8%
same,PT,"[…], time 28 day",12.4 s
same,Plat,"[…], time 28 day",106.3 x10_4/uL
same,RBC,"[…], time 28 day",779.2 x10_4/ul
same,Ret,"[…], time 28 day",2%
same,WBC,"[…], time 28 day",91.9 x10_2/uL
same,KIDNEY_L,"[…], time 7 day",1.1 g
same,KIDNEY_R,"[…], time 7 day",1.1 g
same,KIDNEY_TOTAL,"[…], time 7 day",2.2 g
same,KIDNEY_L,"[…], time 14 day",1.2 g
same,KIDNEY_R,"[…], time 14 day",1.2 g
same,KIDNEY_TOTAL,"[…], time 14 day",2.4 g
same,KIDNEY_L,"[…], time 28 day",1.5 g
same,KIDNEY_R,"[…], time 28 day",1.4 g
same,KIDNEY_TOTAL,"[…], time 28 day",2.9 g
same,LIVER,"[…], time 7 day",12.5 g
same,LIVER,"[…], time 14 day",13.5 g
same,LIVER,"[…], time 28 day",15.9 g
same,A/G,"[…], time 7 day",1.5
same,ALP,"[…], time 7 day",967.8 IU/L
same,ALT,"[…], time 7 day",31.6 IU/L
same,AST,"[…], time 7 day",63.8 IU/L
same,BUN,"[…], time 7 day",15.4 mg/dL
same,CRE,"[…], time 7 day",0.4 mg/dL
same,Ca,"[…], time 7 day",10.6 mg/dL
same,Cl,"[…], time 7 day",103.8 meq/L
same,DBIL,"[…], time 7 day",0.096 mg/dL
same,GLC,"[…], time 7 day",219.2 mg/dL
same,IP,"[…], time 7 day",7.4 mg/dL
same,K,"[…], time 7 day",3.8 meq/L
same,LDH,"[…], time 7 day",164.8 IU/L
same,Na,"[…], time 7 day",140.8 meq/L
same,PL,"[…], time 7 day",147.4 mg/dL
same,RALB,"[…], time 7 day",3.4 g/dL
same,TBIL,"[…], time 7 day",0.1 mg/dL
same,TC,"[…], time 7 day",73.2 mg/dL
same,TG,"[…], time 7 day",103.6 mg/dL
same,TP,"[…], time 7 day",5.7 g/dL
same,gamma-GTP,"[…], time 7 day",1 IU/L
same,A/G,"[…], time 14 day",1.4
same,ALP,"[…], time 14 day",885.8 IU/L
same,ALT,"[…], time 14 day",38.2 IU/L
same,AST,"[…], time 14 day",64.2 IU/L
same,BUN,"[…], time 14 day",16.2 mg/dL
same,CRE,"[…], time 14 day",0.5 mg/dL
same,Ca,"[…], time 14 day",10.6 mg/dL
same,Cl,"[…], time 14 day",103 meq/L
same,DBIL,"[…], time 14 day",0.088 mg/dL
same,GLC,"[…], time 14 day",205.2 mg/dL
same,IP,"[…], time 14 day",7.2 mg/dL
same,K,"[…], time 14 day",3.9 meq/L
same,LDH,"[…], time 14 day",177 IU/L
same,Na,"[…], time 14 day",141.2 meq/L
same,PL,"[…], time 14 day",140.8 mg/dL
same,RALB,"[…], time 14 day",3.5 g/dL
same,TBIL,"[…], time 14 day",0.2 mg/dL
same,TC,"[…], time 14 day",67.2 mg/dL
same,TG,"[…], time 14 day",124.8 mg/dL
same,TP,"[…], time 14 day",6 g/dL
same,gamma-GTP,"[…], time 14 day",1 IU/L
same,A/G,"[…], time 28 day",1.3
same,ALP,"[…], time 28 day",677.6 IU/L
same,ALT,"[…], time 28 day",31.6 IU/L
same,AST,"[…], time 28 day",61.4 IU/L
same,BUN,"[…], time 28 day",17.2 mg/dL
same,CRE,"[…], time 28 day",0.5 mg/dL
same,Ca,"[…], time 28 day",10.4 mg/dL
same,Cl,"[…], time 28 day",103 meq/L
same,DBIL,"[…], time 28 day",0.092 mg/dL
same,GLC,"[…], time 28 day",214.6 mg/dL
same,IP,"[…], time 28 day",6.6 mg/dL
same,K,"[…], time 28 day",3.9 meq/L
same,LDH,"[…], time 28 day",126.8 IU/L
same,Na,"[…], time 28 day",140.8 meq/L
same,PL,"[…], time 28 day",132.8 mg/dL
same,RALB,"[…], time 28 day",3.4 g/dL
same,TBIL,"[…], time 28 day",0.1 mg/dL
same,TC,"[…], time 28 day",64.2 mg/dL
same,TG,"[…], time 28 day",85.8 mg/dL
same,TP,"[…], time 28 day",6.2 g/dL
same,gamma-GTP,"[…], time 28 day",0.8 IU/L
